Measured values: patent publication US20220400670A1, “PROTOPANAXATRIOL (PPT)-TYPE COMPOUNDS AS ACTIVE INGREDIENTS IN INSECTICIDE PRODUCTS” (priority 2019, published 2022)
Marks after values point to notes of the source that are not given here.

Experiments:
Thrips tabaci [1] = assay: Field tests in cauliflower: Thrips on leaves and Thrips-induced damage; assay type: in vivo; conditions: another experiment, diafenthiuron 375 g/ha, PPT 400 g/ha; for Thrips adults per leaf / Thrips larva per leaf: cauliflower
Source text: Cauliflower plants of White Corona variety at 20-30 cm height were sprayed twice at a 7 days interval with the indicted materials at a volume of 400-500 liter per hectare, using 3-nozzled ECHO backpack sprayer. The experiment included 4 repeats in random blocks of […] plants growth, each repeat at an area of 20 m^2. plots having high levels of Thrips tabaci (Thrips) infestation (5-10 Thrips per leaf) at uniform distribution at the beginning of the experiment were chosen for analysis, and 10 leaves per plot were picked and assessed for Thrips number. The number of Thrips adults or larva on each leaf was counted using OptiVISOR® magnifying device. The number of silverleaf whitefly (SLW) nymphs on each leaf was also counted using OptiVISOR® magnifying device.
At the end of the experiment the damage to the upper side of leaves caused by Thrips infestation was assessed on a scale of 0-5, where 0 equals no damage and 5 equals scraping on the leaf's blade (surface).

[2] = system: Silverleaf whitefly biotype Q (neonicotinoid-resistant strain); assay: Lab tests in cotton: nymph mortality of silverleaf whitefly biotype Q; assay type: in vivo, Bemisia tabaci; conditions: cotton plants
Experimental: (§1) Cotton plants were grown in pots and sprayed with the indicated materials using a hand-sprayer. 20-25 females of Silverleaf whitefly biotype B (neonicotinoid-sensitive strain) or biotype Q (neonicotinoid-resistant strain) were transferred to each pot and attached to the treated leaves. Nymphs mortality was evaluated 1 and 2 weeks after treatment application and determined by percent (%) of pupation.

[3] = system: Silverleaf whitefly biotype B (neonicotinoid-sensitive strain); assay: Lab tests in cotton: nymph mortality of silverleaf whitefly biotype B; assay type: in vivo, Bemisia tabaci; conditions: cotton plants; acetamiprid-treated (FIG. 3A)
Experimental: as §1

Aphids (Aphis gossypii) = assay: Field tests in cotton: number of Aphids; assay type: in vivo; conditions: 6 days after the third application; EOS 1%, spinosad 60.5 g/ha, PPT 100 or 300 g/ha (FIG. 4B)
Source text: Cotton plants were sprayed 3-4 times at 6-7 days interval with the indicated materials at a volume of 400 liter per hectare. The experiment included 4-5 repeats in random blocks of cotton plants growth, each repeat at an area of 8-10 m^2. The number of Thrips adults or larva, as well as the number of Aphids (Aphis gossypii), on each leaf was counted using OptiVISOR® magnifying device.

Thrips tabaci [4] = assay: Field tests in cucumber: number of Thrips on leaves; assay type: in vivo; conditions: second experiment
Source text: Cucumber plants of kingstar variety at 170-190 cm height were sprayed twice at a 4 days interval with the indicted materials at a volume of 400-600 liter per hectare, using 3-nozzled ECHO backpack sprayer. The experiment included 4 repeats in random blocks of cucumber plants growth, each repeat at an area of 10-16 m^2. Plots having high levels of Thrips tabaci (Thrips) infestation (5-10 Thrips per leaf) at uniform distribution at the beginning of the experiment were chosen for analysis, and 10 leaves at shoulder height were picked and the number of Thrips was determined for each leaf.

[5] = system: Spodoptera littoralis stage 2-3 larva; assay: Screening assay for lethality; assay type: in vivo; conditions: PPT 50 ppm added to artificial medium; 3 screens, 4 larva replicates each
Experimental: Spodoptera littoralis stage 2-3 larva were grown in entomology trays on artificial medium. Treatment with PPT was effected by the addition of PPT (50 ppm) to the medium and lethality was assessed. The screening assay was repeated 3 times, with 4 larva replicates in each screen.

[6] = system: Pink Bollworm (Pectinophora gossypiella); assay: Lab tests on pink bollworm eggs: hatching and larva development; assay type: in vivo; conditions: 0.15% PPT solution, 5 repeats
Source text: Paper cuttings with Egg clusters of pink bollworm were soaked in a 0.15% PPT solution, and hatching and larva development were observed compared to untreated controls (UTC).

[7] = 4 DPA, neem oil 1%, PPT alone 225 g/ha
[8] = 9 DPA, neem oil 1%, PPT alone 225 g/ha
[9] = Day 0 (baseline), neem oil 1%, PPT alone 225 g/ha

Compound: CC(C)c1cc(Oc2ccccc2)cc(C(C)C)c1NC(=S)NC(C)(C)C [Diafenthiuron, reference compound]
- % efficacy on Thrips larva in cauliflower leaves (Thrips tabaci [1]; 7 DPA): 10%
- % efficacy on Thrips larva in cauliflower leaves (Thrips tabaci [1]; 14 DPA): 0%
- Thrips adults per leaf (Thrips tabaci [1]; 7 DPA): 1.3 per leaf
- Thrips larva per leaf (Thrips tabaci [1]; 7 DPA): 13.9 per leaf
- Thrips adults per leaf (Thrips tabaci [1]; 14 DPA): 2.1 per leaf
- Thrips larva per leaf (Thrips tabaci [1]; 14 DPA): 9.8 per leaf
- Thrips adults per leaf (Thrips tabaci [1]; Day 0 (baseline)): 2.9 per leaf
- Thrips larva per leaf (Thrips tabaci [1]; Day 0 (baseline)): 13.0 per leaf

Compound: C/C(=N\C#N)N(C)Cc1ccc(Cl)nc1 [Acetamiprid, reference compound]
- nymph mortality of SLW biotype Q, determined by percent of pupation ([2]; acetamiprid 10 ppm (FIG. 3B)): had no effect
- nymph mortality of SLW biotype B, determined by percent of pupation [3]: efficient in eliminating SLW nymphs

Compound: spinosad
- number of Aphids on the cotton plants (Aphids (Aphis gossypii)): little or no effect

Compound: CC(C)=CCC[C@](C)(O)[C@H]1CC[C@]2(C)[C@@H]1[C@H](O)C[C@@H]1[C@@]3(C)CC[C@H](O)C(C)(C)[C@@H]3[C@@H](O)C[C@]12C [PPT, Protopanaxatriol]
- mortality of resistant SLW biotype (Q) nymphs ([2]; PPT 0.075% (0.5x) or 0.15% (1x), dose-dependent (FIG. 3B)): up to 93%
- % efficacy on Thrips in cucumber leaves (Thrips tabaci [4]; 4 DPA, PPT 500 g/ha): 65.8%
- Number of Thrips adults on 10 cucumber leaves (Thrips tabaci [4]; 4 DPA, PPT 500 g/ha): 42.5
- Number of Thrips larva on 10 cucumber leaves (Thrips tabaci [4]; 4 DPA, PPT 500 g/ha): 30.0^a
- Number of total Thrips (adults and larva) on 10 cucumber leaves (Thrips tabaci [4]; 4 DPA, PPT 500 g/ha): 72.5^a
- % efficacy on Thrips in cucumber leaves (Thrips tabaci [4]; [7]): 41.4%
- Number of Thrips adults on 10 cucumber leaves (Thrips tabaci [4]; [7]): 78.3
- Number of Thrips larva on 10 cucumber leaves (Thrips tabaci [4]; [7]): 45.8^a
- Number of total Thrips (adults and larva) on 10 cucumber leaves (Thrips tabaci [4]; [7]): 124.0
- Number of Thrips adults on 10 cucumber leaves (Thrips tabaci [4]; 9 DPA, PPT 500 g/ha): 18.0
- Number of Thrips larva on 10 cucumber leaves (Thrips tabaci [4]; 9 DPA, PPT 500 g/ha): 13.0
- Number of total Thrips (adults and larva) on 10 cucumber leaves (Thrips tabaci [4]; 9 DPA, PPT 500 g/ha): 31.0
- Number of Thrips adults on 10 cucumber leaves (Thrips tabaci [4]; [8]): 22.3
- Number of Thrips larva on 10 cucumber leaves (Thrips tabaci [4]; [8]): 38.8
- Number of total Thrips (adults and larva) on 10 cucumber leaves (Thrips tabaci [4]; [8]): 61.0
- Number of Thrips adults on 10 cucumber leaves (Thrips tabaci [4]; Day 0 (baseline), PPT 500 g/ha): 41.8
- Number of Thrips larva on 10 cucumber leaves (Thrips tabaci [4]; Day 0 (baseline), PPT 500 g/ha): 110.0
- Number of total Thrips (adults and larva) on 10 cucumber leaves (Thrips tabaci [4]; Day 0 (baseline), PPT 500 g/ha): 151.8
- Number of Thrips adults on 10 cucumber leaves (Thrips tabaci [4]; [9]): 36.0
- Number of Thrips larva on 10 cucumber leaves (Thrips tabaci [4]; [9]): 95.8
- Number of total Thrips (adults and larva) on 10 cucumber leaves (Thrips tabaci [4]; [9]): 131.8
- lethality to larva [5]: lethal
- Average number of hatchings ([6]; day 9 after treatment): 0.2
- Average number of larva ([6]; day 16 post treatment): 0
- Average number of late hatchings ([6]; day 16 post treatment): 1.8
- % efficacy on Thrips larva in cauliflower leaves (Thrips tabaci [1]; 7 DPA): 60%
- % efficacy on Thrips larva in cauliflower leaves (Thrips tabaci [1]; 14 DPA): 60%
- Thrips adults per leaf (Thrips tabaci [1]; 7 DPA): 0.6 per leaf
- Thrips larva per leaf (Thrips tabaci [1]; 7 DPA): 5.9 per leaf
- Thrips adults per leaf (Thrips tabaci [1]; 14 DPA): 0.48^a,b per leaf
- Thrips larva per leaf (Thrips tabaci [1]; 14 DPA): 4.4^a,b per leaf
- Thrips adults per leaf (Thrips tabaci [1]; Day 0 (baseline)): 3.0 per leaf
- Thrips larva per leaf (Thrips tabaci [1]; Day 0 (baseline)): 16.5 per leaf
